Assay in all cases: Equilibrium inhibition binding with [3H]-NMS, CHO cell membranes
One assay addresses T1, hM1 muscarinic receptor (Homo sapiens, UniProt P11229).
T1 construct: expressed in transfected cells; host or cells: CHO cells, stably transfected; membrane fractions
T1 sequence (P11229 1-460): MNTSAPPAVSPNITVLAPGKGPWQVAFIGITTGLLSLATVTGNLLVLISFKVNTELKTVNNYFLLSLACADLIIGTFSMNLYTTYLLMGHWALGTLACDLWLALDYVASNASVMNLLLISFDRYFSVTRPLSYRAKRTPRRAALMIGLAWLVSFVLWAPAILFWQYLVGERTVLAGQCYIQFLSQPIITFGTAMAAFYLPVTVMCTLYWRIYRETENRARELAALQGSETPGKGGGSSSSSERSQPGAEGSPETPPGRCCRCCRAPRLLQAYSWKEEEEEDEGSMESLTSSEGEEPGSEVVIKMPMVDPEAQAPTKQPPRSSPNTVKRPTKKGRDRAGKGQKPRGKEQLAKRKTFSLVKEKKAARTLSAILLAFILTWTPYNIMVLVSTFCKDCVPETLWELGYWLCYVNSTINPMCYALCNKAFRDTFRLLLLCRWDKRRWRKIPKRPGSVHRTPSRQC
The conditions noted are these: [3H]-NMS 0.2 nM, mean ± SEM of 3-4 experiments, read-out: pKi hM1 (converted). The procedure: (§1) All tested compounds were purchased from Merck KGaA (Darmstadt, Germany). The radioligand binding experiments were performed with membranes from Chinese Hamster Ovary (CHO) cells stably transfected with the five cloned human muscarinic receptor subtypes (hM1-5). Membrane fractions were prepared according to the protocol, which have been previously described; membranes were stored at −80 °C until use. Nonspecific binding was defined by the radioactivity bound in the presence of 10 µM atropine.
(§2) Aliquots of membranes (25–70 µg/mL) were added and incubated for 2 h at room temperature, filtered through UniFilter GF/B plates (PerkinElmer Life and Analytical Science, Monza, Italy) using a FilterMate cell harvester (PerkinElmer Life and Analytical Science, Monza, Italy). The filters were washed several times with ice-cold MilliQ water. Then, the plates were counted in a β-counter (TopCount NXT microplate scintillation counter, PerkinElmer Life and Analytical Science, Monza, Italy).
(§3) Data points from radioligand inhibition binding curve were fitted to models using nonlinear regression equation to determine inhibitor potency (IC50) estimates, which were then converted to Ki values as appropriate.
(§4) All the results are expressed as means ± SEM obtained from 3-4 independent experiments each one performed in duplicate.

Another assay deals with T2, hM2 muscarinic receptor (Homo sapiens, UniProt P08172).
T2 construct: expressed in transfected cells; host or cells: CHO cells, stably transfected; membrane fractions
T2 sequence (P08172 1-466): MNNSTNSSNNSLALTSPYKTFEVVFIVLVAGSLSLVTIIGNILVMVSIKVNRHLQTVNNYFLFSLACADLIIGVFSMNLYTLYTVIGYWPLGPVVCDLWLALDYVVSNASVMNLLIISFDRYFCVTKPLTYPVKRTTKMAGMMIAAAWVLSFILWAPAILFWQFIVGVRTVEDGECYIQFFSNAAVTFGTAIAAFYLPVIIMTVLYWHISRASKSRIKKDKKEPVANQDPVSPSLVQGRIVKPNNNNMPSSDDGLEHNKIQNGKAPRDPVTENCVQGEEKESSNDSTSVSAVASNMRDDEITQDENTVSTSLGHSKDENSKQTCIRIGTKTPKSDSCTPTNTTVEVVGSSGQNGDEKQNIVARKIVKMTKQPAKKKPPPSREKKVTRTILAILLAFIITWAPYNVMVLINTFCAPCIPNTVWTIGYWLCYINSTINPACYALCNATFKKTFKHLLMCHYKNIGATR
The conditions noted are these: [3H]-NMS 0.2 nM, mean ± SEM of 3-4 experiments, read-out: pKi hM2 (converted). The procedure: as §1, §2, §3, §4

The target of another assay is T3, hM4 muscarinic receptor (Homo sapiens, UniProt P08173).
T3 construct: expressed in transfected cells; host or cells: CHO cells, stably transfected; membrane fractions
T3 sequence (P08173 1-479): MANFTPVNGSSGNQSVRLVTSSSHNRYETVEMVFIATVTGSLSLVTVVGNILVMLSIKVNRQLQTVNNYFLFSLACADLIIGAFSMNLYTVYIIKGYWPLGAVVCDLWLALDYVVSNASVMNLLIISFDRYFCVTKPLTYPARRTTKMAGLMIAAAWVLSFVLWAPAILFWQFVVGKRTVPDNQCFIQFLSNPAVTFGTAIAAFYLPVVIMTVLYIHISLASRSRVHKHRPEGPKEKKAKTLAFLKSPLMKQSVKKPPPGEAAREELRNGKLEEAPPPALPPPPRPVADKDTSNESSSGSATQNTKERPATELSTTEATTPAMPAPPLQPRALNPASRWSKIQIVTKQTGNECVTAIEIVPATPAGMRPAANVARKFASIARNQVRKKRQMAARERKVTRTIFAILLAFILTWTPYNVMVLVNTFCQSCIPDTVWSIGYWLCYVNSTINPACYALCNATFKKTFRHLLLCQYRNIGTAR
The conditions noted are these: [3H]-NMS 0.2 nM, CHO membranes, mean ± SEM of 3-4 experiments; read-out: pKi hM4 (converted). The procedure:
as §1, §2, §3, §4

A further assay concerns the target T4, hM5 muscarinic receptor (Homo sapiens, UniProt P08912).
T4 construct: expressed in transfected cells; host or cells: CHO cells, stably transfected; membrane fractions
T4 sequence (P08912 1-532): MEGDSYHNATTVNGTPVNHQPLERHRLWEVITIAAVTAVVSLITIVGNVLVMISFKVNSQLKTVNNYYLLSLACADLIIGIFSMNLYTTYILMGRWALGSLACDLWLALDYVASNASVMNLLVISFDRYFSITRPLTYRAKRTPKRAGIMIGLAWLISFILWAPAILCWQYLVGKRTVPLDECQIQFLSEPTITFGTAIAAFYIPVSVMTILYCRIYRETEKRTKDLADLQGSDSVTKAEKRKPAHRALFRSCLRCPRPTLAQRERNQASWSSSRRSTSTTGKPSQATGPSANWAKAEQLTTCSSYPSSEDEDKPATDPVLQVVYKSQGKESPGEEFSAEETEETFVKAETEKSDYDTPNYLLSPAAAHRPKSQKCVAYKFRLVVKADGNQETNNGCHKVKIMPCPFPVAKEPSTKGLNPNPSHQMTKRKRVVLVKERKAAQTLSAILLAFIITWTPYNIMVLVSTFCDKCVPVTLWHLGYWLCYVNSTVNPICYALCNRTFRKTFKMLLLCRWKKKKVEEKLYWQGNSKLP
The conditions noted are these: [3H]-NMS 0.2 nM, CHO membranes, mean ± SEM of 3-4 experiments; read-out: pKi hM5 (converted). The procedure: as §1, §2, §3, §4

In the case of `Cc1cc(N)c2ccccc2[n+]1CCCCCCCCCC[n+]1c(C)cc(N)c2ccccc21` [dequalinium], the Ki on hM1 muscarinic receptor was 41.7 nM; on hM2 muscarinic receptor, 661 nM; on hM4 muscarinic receptor, 69.2 nM; at hM5 muscarinic receptor, 158 nM.

For the origin of these results see PMC7503225, “Repositioning Dequalinium as Potent Muscarinic Allosteric Ligand by Combining Virtual Screening Campaigns and Experimental Binding Assays” (International Journal of Molecular Sciences, 2020).
